# Measurements as given in a melting point compilation (Tetko et al.; mined from patent text by program, amines drawn as free bases though some values may be those of a salt).
row,Compound,melting point [°C]
1,CC(C)C(S)C(=O)NC1(C(=O)NC(Cc2ccc(-c3ccsc3)nc2)C(=O)O)CCCC1 (centres undefined),215 to 217
2,Cc1c(CC(C)C)sc2nc(C(Cl)(Cl)Cl)[nH]c(=O)c12,192 to 194
3,CC1(C)CCCC(C)(C)N1Cc1ccc2cc(NC(=O)c3ccc(-c4ccc(Cl)cc4)cc3)ccc2c1,244 to 246
4,CC(=O)NC[C@H]1CN(c2ccc(N3CC(=O)C3)c(F)c2)C(=O)O1,192 to 193
5,CC1(c2cn(-c3c(Cl)cc(C(F)(F)F)cc3Cl)nc2C#N)CC1,138 to 139
6,O=C(O)CCc1ccc2c(c1)OCO2,86.1 to 88.3
7,CCC(=O)NC(C)(C(=O)NS(=O)(=O)c1ccc(C)cc1)C(C)C (centres undefined),166 to 168
8,Brc1cccc2c1Cc1ccccc1-2,102 to 103
9,OC(Cn1cncn1)(c1ccc(Cl)cn1)c1ccc(Cl)cn1,98 to 100
10,COC(=O)c1ccc(Oc2ccc([N+](=O)[O-])cc2C(=O)OC)cc1,103 to 105
11,O=C(O)C(Cl)(Cl)CCCCCCCCCCOc1ccc(Cl)cc1,63 to 64
12,CCNC(=S)NS(=O)(=O)c1cc2c(cc1OC)OCCC2CNC(=O)c1cc(Cl)ccc1OC (centres undefined),196 to 197
13,N=C(N)c1ccc(O)c([N+](=O)[O-])c1,> 240
14,O=C(Nc1ccc(C(CC2CCCC2)C(=O)O)cc1)c1cccnc1 (centres undefined),160 to 163
15,Cc1cccc(-c2n[nH]cc2-c2ccc(F)c(-c3csc(CO)n3)c2)n1,89 to 92
16,CC(C)NCC(O)COc1ccc2c(c1)OC(C)CC2 (centres undefined),79 to 81
17,COc1ccc(COC(=O)c2nc(-c3ccc(Cl)c(OC)c3F)cc(N)c2Cl)cc1,73 to 83
18,CCOC(=O)c1c(N)sc(N)c1C(=O)OCC,155 to 158
19,NN=C1CCc2ccccc21,84 to 86
20,C[Si](C)(C)C#Cc1cn(-c2c(Cl)cc(C(F)(F)F)cc2Cl)nc1C(F)(F)F,105 to 108
21,CCCOc1cccc2cc(-c3ccc4c(c3)C=C(C(=O)Nc3ccc(CN(C)C5CCOCC5)cc3)CCS4(=O)=O)oc12,246 to 248
22,CS(=O)c1ccc(C(=O)CCCCC#N)cc1 (centres undefined),89.5 to 91.5
23,COc1cc2c(cc1OC)OCC(C(=O)O)=C2,225 to 228
24,COc1cc2cc(C)sc2c(Cl)c1Cl,113 to 114
25,CC(=NOCCOc1ccc(CC2SC(=O)NC2=O)cc1)c1ccc(OCc2ccccc2)nc1 (centres undefined),160 to 161
26,CCCN1CC(c2ccc(S(C)(=O)=O)cc2)=C(c2ccc(F)cc2)C1=O,120 to 121
27,CNC(=O)c1cc(Cl)cc(Cl)c1NC(=O)c1cc(Br)nn1-c1ccccc1Cl,209 to 210
28,CCCCCCCCCCOc1ccc(OCc2ccccc2)c(C(=O)N(CC(=O)OCC)CC(=O)OCC)c1,37 to 38

row,Compound,melting point [°C]
1,Nc1[nH]ncc1C(=O)c1cccs1,114 to 115
2,COc1ccc(C2COc3cc(O)c(O)cc3C2)cc1OC (centres undefined),153
3,O=C(Nc1cccc(S(=O)(=O)NC2CC2)c1)c1cnn2c(C(F)F)cc(-c3ccc(Cl)cc3)nc12,262
4,O=C(Cl)c1ccc(S(=O)(=O)NC(=O)c2ccccc2)cc1,180 to 182
5,CCCCC1=NC2(CCCC2)C(=O)N1Cc1ccc(-c2ccccc2S(=O)(=O)Nc2onc(C)c2C)c(CN2CCCC2=O)c1,95 to 100
6,Cc1oc(C=Cc2cccc(Cl)c2)nc1CC#N,119 to 120
7,O=C(NCCCCCCOC(=O)N1CCC2(CCCC2)CC1)OC1CCN(C(=O)Oc2ccc3oc4ccccc4c3c2)CC1,100 to 102
8,Cc1nc(C)c(-c2ccnc(Nc3ccc(N4CCCCC4)c(C)c3)n2)s1,159 to 160
9,CC1CN(C)N(c2cc(Cl)cc(Cl)c2)C(=O)N1 (centres undefined),129 to 130
10,COC(=O)C=Cc1ccc(OC)c(C)c1,70 to 73
11,O=C(O)CCCCCCc1ccc(Cl)cc1,75 to 78
12,C=CC1CC1(C(C)=O)C(=O)Nc1ccccc1 (centres undefined),104 to 105
13,COc1cccc(Oc2cccc3c2C2(COc4cc5c(cc42)OCCO5)C(=O)N3C)c1 (centres undefined),166 to 168
14,O=C(C1CCN(c2ccncc2)CC1)N1CCN(S(=O)(=O)c2ccc3ccccc3c2)C(Cc2ccccc2)C1 (centres undefined),186 to 188
15,COc1cc(N2CCN(C(=O)c3ccc(Nc4ccnc5cc(C(F)(F)F)ccc45)cc3)CC2)nc(OC)n1,260 to 262
16,COC(=O)C1=C(C)NC(CF)=C(C(=O)OC)C1c1c(F)c(F)c(F)c(F)c1F (centres undefined),148 to 150
17,CC1(c2cc(-c3nc4ccc(OCc5ccccc5)cc4[nH]3)ccc2OCc2ccccc2)CCCCC1,209
18,COCCSc1sc(-c2cc[nH]n2)c2c1C(=O)CC(C)(C)C2,159 to 162
19,C[C@@H](O)Cn1ncc2ccc(O)c(Br)c21,134 to 136
20,Clc1cccc(Cl)c1Cc1c[nH]cn1,142 to 145
21,CCC(=O)C1(O)CC=C2CC3C4C=CC(O)C5OC1=C2C45CCN3C (centres undefined),85 to 86
22,CCC1C(C)=NN=C(c2ccc(OC)c(O)c2)c2cc(O)c(OC)cc21 (centres undefined),143 to 145
23,CCc1nc(-c2ccc(/C=C/C3(O)CN4CCC3CC4)cc2)no1 (centres undefined),158 to 160
24,COc1c(Br)c(-c2cc(C(C)C)n(C)n2)cc2oc(=O)c(Cl)c(C)c12,165
25,CCOC(=O)c1[nH]cc(C)c(=O)c1C,124 to 126
26,O=S(=O)(c1nc(-c2ccc(Cl)c(Cl)c2)c(-c2cccs2)[nH]1)C(F)(F)C(F)F,158 to 160
27,CCCc1oc(-c2ccccc2)nc1COc1ccc(COc2ccccc2CC(=O)O)cc1,129 to 130

# More lines, now with the values ahead:
row,melting point [°C],Compound
1,48 to 49,COC(=O)/C(=C\O)c1ccccc1C
2,217 to 220,CC(C)(C)c1nc(C(=O)c2ncc[nH]2)nc(C(C)(C)C)c1O
3,215,CC(C)(C)OC(=O)NCCn1cnc2c(N)nc3ccccc3c21
4,227 to 230,Cc1cccc2cc3c(=O)n(CC(F)(F)F)cc(C(=O)NCCN(C)C)c3nc12
5,90 to 95,CCc1c(C(=O)NCCCCCCC(=NOCCN)c2ccc(C(F)(F)F)cc2)nc(-c2ccccc2Cl)n1-c1ccc(Cl)cc1
6,131,Oc1ccc(OCc2ccccc2)c2c1OCCO2
7,94,CCOC(=O)COc1ccnc2c(N)cccc12
8,290 to 292,Cn1nc(-c2ccc3cc(O)ccc3c2)c2ccc(O)cc21
9,148 to 149,Cc1c2c(c(Oc3ccc(C(C)C)cc3)c(C)c1NC(=O)CC(C)(C)C)OC(C)(C)C2
10,221 to 223,CNc1nc(N)nc2c1ncn2C1C=CC(CO)C1 (centres undefined)
11,128 to 130,COC(=O)c1cc2c3c(cc(OCc4ccccc4)c2[nH]1)N(C(=O)OC(C)(C)C)C[C@H]3COC(C)=O
12,207 to 208,CCc1cnc(N2CCN(C(=O)c3ccc(CNc4nc(-c5ccccc5)nc5ccccc45)cc3)CC2)nc1
13,113 to 115,COc1cc(-c2cn(C3CCCC3)c3ncnc(N)c23)ccc1NS(=O)(=O)c1ccccc1
14,178 to 180,COc1ccc(Cc2cc(C3CCN(C(=O)Nc4ccccc4)CC3)nc(N)n2)cc1
15,66 to 68,COc1ccc(C(=O)c2cccn2C)cc1
16,66 to 68,O=C(O)CSc1nc(-c2ccccc2)c(-c2ccccc2)o1
17,138,CC(C)CNc1nc(-c2ccccc2)c(Br)n2ccnc12
18,145 to 146,O=C1C=C(O)CC(c2ccccc2)O1 (centres undefined)
19,40,CSc1cnc2ccccc2c1
20,180 to 181,COc1ccc(-c2c(C(C)=O)c(Cn3cncn3)nc3cc(OC)c(OC)cc23)cc1OC
21,145,Clc1nc(Cl)nc(Nc2ccc(OCc3ccccc3)c(Cl)c2)n1
22,155 to 157,CN(Cc1ccccc1)CC1CN(c2c(F)cc3c(=O)c(C(=O)O)cn(C4CC4)c3c2F)CCO1 (centres undefined)

row,melting point [°C],Compound
1,112 to 114,CC(C)(C)OC(=O)NCC1CNC1
2,220,CC(C)(C)S(=O)(=O)NC(=O)c1cccc([N+](=O)[O-])c1
3,155 to 160,O=C(NCc1ccccc1)c1ccc2[nH]ccc2c1
4,238 to 240,O=C(CNc1ccc(F)c(F)c1)Nc1c(Cl)ccc2nc(N3CC[C@@H](O)C3)ccc12
5,175 to 176,COc1cc(COc2ccc3nc(NC(=O)OCC(O)CO)cn3n2)cc(OC)c1OC (centres undefined)
6,239 to 241,O=[N+]([O-])c1ccccc1Cc1n[nH]c(S)n1
7,150 to 151,CC(=O)c1c(-c2ccc(F)cc2)nn(CC2CC2)c(=O)c1Nc1cccc2cccnc12
8,58 to 60,COC(=O)c1cc(C(C)(C)C(=O)OC)ccc1N
9,230 to 231,CC(C)=NOCc1nc2c(N)nc3ccccc3c2n1CCNC(=O)NC(C)C
10,215,CN(C)c1cccc(C(=O)Nc2ccc3ccc(Cl)nc3n2)c1
11,126 to 127,C/C(=C\CO)c1ccc(OCc2nc(-c3ccccc3)oc2C)cc1
12,169,Cn1c(CNCC(C)(C)O)cc2cc(NC(=O)c3ccc(OCC4CCOC4)cc3)ccc21 (centres undefined)
13,97 to 98,COC(=O)C=Cc1ccc(-c2ccccc2C(F)(F)F)c(C(F)(F)F)c1
14,104 to 106,CCN(CC)CCNc1cccc2c1C(=O)c1c(NCCN(CC)CC)cccc1C2=O
15,162 to 164,CSC(=N)N(C#N)C(c1ccccn1)c1ccccc1C (centres undefined)
16,90 to 91,COC(=O)c1cn(Cc2ccc(OCc3nc(-c4ccccc4)oc3C)cc2)nc1C(C)C
17,160,CC1(C)Cc2c(N)c(Cl)cc(C(=O)NC3CCN(CCCNc4nc(O)c5ccccc5n4)CC3)c2O1
18,122 to 123,Cc1cc(OCCc2nc(-c3ccc(-c4ccccc4)cc3)oc2C)ccc1OC(C)(C)C(=O)O
19,150 to 152,CC(CCN(C)c1ccccc1)NCC(O)c1ccc(O)c(C(N)=O)c1 (centres undefined)
20,106 to 108,CS(=O)(=O)ON=C(Cl)c1ccccc1
21,237 to 238,CCNC(=S)Nc1ccc2ncc(Nc3cc(OC)c(OC)c(OC)c3)cc2n1
22,140 to 141,CC(C)N=c1[nH]c2ccc(Cl)cc2c2nc(-c3ccco3)nn12
